Laboratory results published in US11208412B2 (DAEGU-GYEONGBUK MEDICAL INNOVATION FOUNDATION, priority 2017, dated 2021).

Columns and labels:
Test in all cases: Kinase selectivity, DiscoverX scanMAX Kinase assay panel (% control)
Format in all cases: binding
[1] = target: T1, kinases of the scanMAX Kinase assay panel (Homo sapiens, UniProt Q9BX84); conditions: kinase TRPM6; 1 uM in DMSO
T1 construct: purchased DiscoverX Co. (contract measurement) scanMAX Kinase assay panel
Procedure, shortened: (§1)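 Binding-panel profiling at one concentration, 1 uM in DMSO; values are % of DMSO control after subtracting the positive-control floor. Less than 35% means activity on that kinase.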

[2] = target: T2, kinases of the scanMAX Kinase assay panel (Homo sapiens, UniProt P00533, DEL752-759); conditions: EGFR(S752-I759de1); 1 uM
T2 construct: purchased DiscoverX Co. (contract measurement) scanMAX Kinase assay panel
T2 sequence (P00533 with tags, fused parts or gaps DEL752-759): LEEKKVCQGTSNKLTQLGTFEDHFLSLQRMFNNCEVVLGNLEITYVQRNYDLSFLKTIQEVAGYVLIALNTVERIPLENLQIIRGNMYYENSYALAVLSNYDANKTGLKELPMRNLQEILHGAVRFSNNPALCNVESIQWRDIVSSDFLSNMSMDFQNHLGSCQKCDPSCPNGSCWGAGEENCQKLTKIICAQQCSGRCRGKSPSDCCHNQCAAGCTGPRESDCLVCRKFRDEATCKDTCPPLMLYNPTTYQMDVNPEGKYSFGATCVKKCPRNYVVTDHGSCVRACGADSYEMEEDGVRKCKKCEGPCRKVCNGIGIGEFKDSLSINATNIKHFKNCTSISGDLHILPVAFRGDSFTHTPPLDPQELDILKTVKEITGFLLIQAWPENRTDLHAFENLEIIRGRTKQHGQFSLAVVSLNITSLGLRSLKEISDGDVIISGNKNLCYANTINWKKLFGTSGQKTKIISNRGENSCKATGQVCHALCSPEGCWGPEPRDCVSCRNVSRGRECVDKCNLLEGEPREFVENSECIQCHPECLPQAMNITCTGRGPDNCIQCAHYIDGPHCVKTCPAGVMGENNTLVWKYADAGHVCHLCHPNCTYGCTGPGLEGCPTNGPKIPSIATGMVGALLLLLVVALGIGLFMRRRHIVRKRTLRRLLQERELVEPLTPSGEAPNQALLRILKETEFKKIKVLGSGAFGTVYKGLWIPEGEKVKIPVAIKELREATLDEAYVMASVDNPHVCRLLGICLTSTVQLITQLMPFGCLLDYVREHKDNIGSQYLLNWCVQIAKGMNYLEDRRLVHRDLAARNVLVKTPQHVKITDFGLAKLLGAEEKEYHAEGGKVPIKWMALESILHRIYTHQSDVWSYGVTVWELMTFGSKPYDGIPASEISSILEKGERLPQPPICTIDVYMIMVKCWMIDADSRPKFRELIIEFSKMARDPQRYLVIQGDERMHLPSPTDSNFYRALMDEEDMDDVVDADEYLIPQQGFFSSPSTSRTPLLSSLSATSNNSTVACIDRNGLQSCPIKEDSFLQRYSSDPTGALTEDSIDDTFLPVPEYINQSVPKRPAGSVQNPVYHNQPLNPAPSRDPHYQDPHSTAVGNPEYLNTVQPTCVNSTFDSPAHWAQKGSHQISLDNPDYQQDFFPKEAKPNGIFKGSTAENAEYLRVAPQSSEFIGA
Procedure, shortened: as §1

[3] = target: T3, kinases of the scanMAX Kinase assay panel (Homo sapiens, UniProt P54753); conditions: EPHB3; 1 uM
T3 construct: purchased DiscoverX Co. (contract measurement) scanMAX Kinase assay panel
T3 sequence (P54753 34-998): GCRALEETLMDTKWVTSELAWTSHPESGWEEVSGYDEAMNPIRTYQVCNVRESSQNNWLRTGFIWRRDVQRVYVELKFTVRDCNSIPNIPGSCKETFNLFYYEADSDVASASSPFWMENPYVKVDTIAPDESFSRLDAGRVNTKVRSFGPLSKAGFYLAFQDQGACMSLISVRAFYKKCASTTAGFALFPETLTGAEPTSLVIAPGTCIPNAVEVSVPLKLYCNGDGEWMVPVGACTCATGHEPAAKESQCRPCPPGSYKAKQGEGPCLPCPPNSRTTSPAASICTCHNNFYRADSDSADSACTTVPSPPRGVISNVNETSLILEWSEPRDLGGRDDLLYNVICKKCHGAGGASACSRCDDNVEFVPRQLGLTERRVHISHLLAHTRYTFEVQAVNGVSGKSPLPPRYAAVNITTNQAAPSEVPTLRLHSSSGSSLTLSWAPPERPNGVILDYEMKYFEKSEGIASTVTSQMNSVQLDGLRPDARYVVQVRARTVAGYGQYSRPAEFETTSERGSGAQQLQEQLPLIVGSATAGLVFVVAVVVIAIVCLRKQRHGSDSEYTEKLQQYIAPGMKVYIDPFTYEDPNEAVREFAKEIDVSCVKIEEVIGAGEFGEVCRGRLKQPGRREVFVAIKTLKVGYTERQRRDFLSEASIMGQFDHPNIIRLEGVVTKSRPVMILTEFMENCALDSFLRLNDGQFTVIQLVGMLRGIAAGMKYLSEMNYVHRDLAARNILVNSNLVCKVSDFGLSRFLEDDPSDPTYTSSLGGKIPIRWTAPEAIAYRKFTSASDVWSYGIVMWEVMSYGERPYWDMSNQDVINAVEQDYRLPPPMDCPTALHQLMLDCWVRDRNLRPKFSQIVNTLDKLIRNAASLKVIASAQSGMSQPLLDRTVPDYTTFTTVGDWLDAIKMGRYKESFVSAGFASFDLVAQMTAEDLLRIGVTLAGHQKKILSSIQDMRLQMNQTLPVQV
Procedure, shortened: as §1

[4] = target: T4, kinases of the scanMAX Kinase assay panel (Homo sapiens, UniProt Q8IYT8); conditions: kinase ULK2; 1 uM in DMSO
T4 construct: purchased DiscoverX Co. (contract measurement) scanMAX Kinase assay panel
T4 sequence (Q8IYT8 1-1036): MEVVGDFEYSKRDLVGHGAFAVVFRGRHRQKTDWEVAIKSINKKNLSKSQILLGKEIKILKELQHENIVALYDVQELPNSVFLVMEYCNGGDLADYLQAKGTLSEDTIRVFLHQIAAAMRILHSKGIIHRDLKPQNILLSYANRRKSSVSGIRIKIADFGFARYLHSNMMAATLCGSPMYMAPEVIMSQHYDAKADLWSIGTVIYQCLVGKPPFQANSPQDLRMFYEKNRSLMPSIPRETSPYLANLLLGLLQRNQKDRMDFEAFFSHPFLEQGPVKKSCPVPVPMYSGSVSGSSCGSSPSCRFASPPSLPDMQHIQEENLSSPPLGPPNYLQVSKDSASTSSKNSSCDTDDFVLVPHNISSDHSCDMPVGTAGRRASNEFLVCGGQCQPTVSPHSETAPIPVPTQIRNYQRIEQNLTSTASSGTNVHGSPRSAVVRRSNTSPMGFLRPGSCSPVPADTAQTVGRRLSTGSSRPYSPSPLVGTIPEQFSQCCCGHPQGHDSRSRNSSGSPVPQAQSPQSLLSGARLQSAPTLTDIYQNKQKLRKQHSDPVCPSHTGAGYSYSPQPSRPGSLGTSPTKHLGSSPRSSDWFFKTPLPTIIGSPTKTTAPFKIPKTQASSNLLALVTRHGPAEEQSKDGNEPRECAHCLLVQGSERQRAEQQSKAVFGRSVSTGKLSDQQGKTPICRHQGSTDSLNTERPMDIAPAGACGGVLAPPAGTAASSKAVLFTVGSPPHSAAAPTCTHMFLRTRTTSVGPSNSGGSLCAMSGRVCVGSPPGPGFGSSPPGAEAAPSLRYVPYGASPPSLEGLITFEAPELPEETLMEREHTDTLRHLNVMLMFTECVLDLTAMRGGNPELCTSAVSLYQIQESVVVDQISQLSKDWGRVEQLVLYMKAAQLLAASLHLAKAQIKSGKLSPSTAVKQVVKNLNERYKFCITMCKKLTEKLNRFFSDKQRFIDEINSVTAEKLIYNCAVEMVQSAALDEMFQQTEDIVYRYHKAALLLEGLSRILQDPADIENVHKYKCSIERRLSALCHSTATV
Procedure, shortened: as §1

[5] = target: T5, kinases of the scanMAX Kinase assay panel (Homo sapiens, UniProt P27037); conditions: ACVR2A; 1 uM
T5 construct: purchased DiscoverX Co. (contract measurement) scanMAX Kinase assay panel
T5 sequence (P27037 20-513): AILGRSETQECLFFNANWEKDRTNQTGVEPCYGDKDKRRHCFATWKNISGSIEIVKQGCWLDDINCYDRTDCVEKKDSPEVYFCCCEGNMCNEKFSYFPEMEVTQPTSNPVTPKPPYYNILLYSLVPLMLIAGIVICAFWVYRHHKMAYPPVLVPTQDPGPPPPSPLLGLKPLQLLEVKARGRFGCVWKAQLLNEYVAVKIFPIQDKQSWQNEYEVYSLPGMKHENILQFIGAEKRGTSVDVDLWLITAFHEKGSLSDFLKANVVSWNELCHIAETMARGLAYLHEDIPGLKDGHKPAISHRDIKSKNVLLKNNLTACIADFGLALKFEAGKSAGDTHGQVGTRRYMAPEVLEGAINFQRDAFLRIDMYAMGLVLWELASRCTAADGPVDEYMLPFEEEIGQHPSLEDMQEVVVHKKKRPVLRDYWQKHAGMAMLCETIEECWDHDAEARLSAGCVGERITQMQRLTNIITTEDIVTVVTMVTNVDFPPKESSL
Procedure, shortened: as §1

[6] = target: T6, kinases of the scanMAX Kinase assay panel (Homo sapiens, UniProt P07332); conditions: FES; 1 uM
T6 construct: purchased DiscoverX Co. (contract measurement) scanMAX Kinase assay panel
T6 sequence (P07332 whole entry): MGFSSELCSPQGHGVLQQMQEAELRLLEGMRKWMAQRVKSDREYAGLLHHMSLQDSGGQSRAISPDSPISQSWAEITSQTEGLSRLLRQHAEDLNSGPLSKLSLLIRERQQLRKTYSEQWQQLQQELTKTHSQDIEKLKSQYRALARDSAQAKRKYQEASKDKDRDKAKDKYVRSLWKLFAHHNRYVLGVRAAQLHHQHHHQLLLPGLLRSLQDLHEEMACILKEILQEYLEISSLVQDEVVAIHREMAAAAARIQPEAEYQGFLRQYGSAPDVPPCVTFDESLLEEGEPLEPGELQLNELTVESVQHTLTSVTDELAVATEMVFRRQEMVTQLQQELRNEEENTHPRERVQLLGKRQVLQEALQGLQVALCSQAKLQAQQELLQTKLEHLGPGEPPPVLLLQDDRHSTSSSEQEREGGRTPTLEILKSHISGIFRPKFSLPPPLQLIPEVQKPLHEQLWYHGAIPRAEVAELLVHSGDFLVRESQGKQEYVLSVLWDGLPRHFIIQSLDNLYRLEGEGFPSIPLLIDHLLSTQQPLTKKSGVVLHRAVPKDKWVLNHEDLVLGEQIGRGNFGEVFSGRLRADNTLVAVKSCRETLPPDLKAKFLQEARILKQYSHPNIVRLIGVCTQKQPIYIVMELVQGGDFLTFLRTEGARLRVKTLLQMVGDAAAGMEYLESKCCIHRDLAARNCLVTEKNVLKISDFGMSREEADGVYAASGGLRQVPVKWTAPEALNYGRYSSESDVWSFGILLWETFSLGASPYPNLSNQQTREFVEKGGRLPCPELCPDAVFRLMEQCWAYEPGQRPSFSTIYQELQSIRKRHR
Procedure, shortened: as §1

[7] = target: T7, kinases of the scanMAX Kinase assay panel (Homo sapiens, UniProt P08922); conditions: kinase ROS1; 1 uM in DMSO
T7 construct: purchased DiscoverX Co. (contract measurement) scanMAX Kinase assay panel
T7 sequence (P08922 28-2347): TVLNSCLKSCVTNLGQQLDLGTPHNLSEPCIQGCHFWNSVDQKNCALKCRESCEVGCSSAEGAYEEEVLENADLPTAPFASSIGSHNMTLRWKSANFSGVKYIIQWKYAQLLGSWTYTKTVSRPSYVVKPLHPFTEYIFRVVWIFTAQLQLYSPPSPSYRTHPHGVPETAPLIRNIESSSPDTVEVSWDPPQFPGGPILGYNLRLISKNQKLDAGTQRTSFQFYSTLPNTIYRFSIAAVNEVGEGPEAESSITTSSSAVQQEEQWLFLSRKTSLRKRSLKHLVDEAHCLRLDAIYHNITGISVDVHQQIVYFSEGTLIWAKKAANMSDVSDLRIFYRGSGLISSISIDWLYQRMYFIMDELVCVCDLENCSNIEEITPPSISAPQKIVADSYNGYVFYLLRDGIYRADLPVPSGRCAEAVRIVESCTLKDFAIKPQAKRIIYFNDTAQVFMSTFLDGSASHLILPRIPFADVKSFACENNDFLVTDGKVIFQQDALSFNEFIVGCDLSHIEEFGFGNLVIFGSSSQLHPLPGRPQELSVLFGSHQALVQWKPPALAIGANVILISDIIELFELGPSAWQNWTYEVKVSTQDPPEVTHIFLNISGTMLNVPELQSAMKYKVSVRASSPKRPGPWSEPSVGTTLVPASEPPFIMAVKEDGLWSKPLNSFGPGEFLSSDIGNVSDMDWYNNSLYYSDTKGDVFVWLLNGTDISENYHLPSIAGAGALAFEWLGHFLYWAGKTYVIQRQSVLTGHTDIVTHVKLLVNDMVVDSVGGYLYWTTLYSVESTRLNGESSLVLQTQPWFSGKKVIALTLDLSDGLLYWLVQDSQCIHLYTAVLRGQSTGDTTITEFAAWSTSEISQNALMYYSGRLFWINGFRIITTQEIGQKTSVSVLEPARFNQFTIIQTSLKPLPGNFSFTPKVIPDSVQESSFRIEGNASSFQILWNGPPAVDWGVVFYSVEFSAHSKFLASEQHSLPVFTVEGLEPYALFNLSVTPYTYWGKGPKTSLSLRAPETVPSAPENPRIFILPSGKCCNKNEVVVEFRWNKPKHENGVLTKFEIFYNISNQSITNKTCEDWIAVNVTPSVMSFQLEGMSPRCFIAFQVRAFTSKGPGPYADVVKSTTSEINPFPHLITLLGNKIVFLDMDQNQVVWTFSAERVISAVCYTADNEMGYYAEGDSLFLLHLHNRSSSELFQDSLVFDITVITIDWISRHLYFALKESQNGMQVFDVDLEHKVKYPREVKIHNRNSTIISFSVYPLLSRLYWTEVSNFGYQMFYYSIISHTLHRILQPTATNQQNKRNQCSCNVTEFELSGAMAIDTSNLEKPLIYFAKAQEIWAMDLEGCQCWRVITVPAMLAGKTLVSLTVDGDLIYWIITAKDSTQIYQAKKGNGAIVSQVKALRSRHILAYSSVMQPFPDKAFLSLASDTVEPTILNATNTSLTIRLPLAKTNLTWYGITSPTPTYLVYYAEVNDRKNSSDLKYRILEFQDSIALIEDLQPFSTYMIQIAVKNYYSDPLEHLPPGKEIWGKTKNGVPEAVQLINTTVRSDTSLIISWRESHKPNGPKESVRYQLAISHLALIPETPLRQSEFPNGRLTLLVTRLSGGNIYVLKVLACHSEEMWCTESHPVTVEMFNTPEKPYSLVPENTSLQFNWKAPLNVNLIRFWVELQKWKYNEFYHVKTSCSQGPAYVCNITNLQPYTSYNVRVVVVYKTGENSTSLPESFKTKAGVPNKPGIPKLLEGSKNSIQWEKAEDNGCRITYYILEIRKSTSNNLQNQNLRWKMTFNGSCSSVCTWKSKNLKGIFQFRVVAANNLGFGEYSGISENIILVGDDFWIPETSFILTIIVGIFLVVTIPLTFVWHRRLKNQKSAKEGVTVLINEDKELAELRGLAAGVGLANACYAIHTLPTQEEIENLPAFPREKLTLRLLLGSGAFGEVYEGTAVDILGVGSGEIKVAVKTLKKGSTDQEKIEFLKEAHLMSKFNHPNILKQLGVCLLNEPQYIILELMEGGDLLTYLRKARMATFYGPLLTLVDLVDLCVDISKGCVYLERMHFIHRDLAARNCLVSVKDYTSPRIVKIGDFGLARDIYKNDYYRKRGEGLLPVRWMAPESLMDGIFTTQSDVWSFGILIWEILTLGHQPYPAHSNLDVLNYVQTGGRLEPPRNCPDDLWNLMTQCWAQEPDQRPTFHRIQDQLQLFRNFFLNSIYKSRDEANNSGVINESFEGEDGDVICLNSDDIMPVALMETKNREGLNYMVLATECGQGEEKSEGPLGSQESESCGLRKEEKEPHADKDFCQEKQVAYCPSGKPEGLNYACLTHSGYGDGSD
Procedure, shortened: as §1

[8] = target: T8, kinases of the scanMAX Kinase assay panel (Homo sapiens, UniProt O00506); conditions: kinase YSK1; 1 uM in DMSO
T8 construct: purchased DiscoverX Co. (contract measurement) scanMAX Kinase assay panel
Procedure, shortened: as §1

[9] = target: T9, kinases of the scanMAX Kinase assay panel (Homo sapiens, UniProt O94921); conditions: PFTK1; 1 uM
T9 construct: purchased DiscoverX Co. (contract measurement) scanMAX Kinase assay panel
Procedure, shortened: as §1

Row | SMILES | remaining binding at 1 µM [1] | remaining binding at 1 µM [2] | remaining binding at 1 µM [3] | remaining binding at 1 µM [4] | remaining binding at 1 µM [5] | remaining binding at 1 µM [6] | remaining binding at 1 µM [7] | remaining binding at 1 µM [8] | remaining binding at 1 µM [9]
1 | CNc1nc(Nc2ccc(C(=O)N3CCOCC3)cc2OC)nc2[nH]cc(C#N)c12 [Example 1, 2-((2-methoxy-4-(morpholine-4-carbonyl)phenyl)amino)-4-(methylamino)-7H-pyrrolo[2,3-d]pyrimidine-5-carbonitrile] | 88% | 76% | 93% | 75% | 100% | 61% | 56% | 97% | 97%
2 | CC1(Nc2nc(Nc3cnn([C@H]4CCN(C5COC5)C[C@@H]4F)c3Cl)nc3[nH]cc(C#N)c23)CC1 [Example 52, 2-((5-chloro-1-((3S,4S)-3-fluoro-1-(oxetane-3-yl)piperidine-4-yl)-1H-pyrazole-4-yl)amino)((1-methylcyclopropyl)amino)-7H-pyrrolo[2,3-d]pyrimidine-5-carbonitrile] | 93% | 94% | 95% | 15% | 98% | 1.3% | 23% | 28% | 100%
3 | CCNc1nc(Nc2ccc(C(=O)N3CCC(N4CCOCC4)CC3)cc2OC)nc2[nH]cc(C(F)(F)F)c12 [Example 104, (4-((4-(ethylamino)-5-(trifluoromethyl)-7H-pyrrolo[2,3-d]pyrimidine-2-yl)amino)-3-methoxyphenyl)(4-morpholinopiperidine-1-yl)methanone] | 98% | 100% | 100% | 100% | 100% | 36% | 22% | 81% | 96%
